Experimental data taken from ChEMBL document CHEMBL6087436, “The novel β-hairpin antimicrobial peptide D-G(RF)3 demonstrates exceptional antibacterial efficacy” (Eur J Med Chem, 2025).
Converted amounts (≈) assume the structure as drawn. The source made the active and inactive calls. The rule behind the calls is not given here.

Legend:
Klebsiella pneumoniae [1] = assay: Inhibition of biofilm formation in Klebsiella pneumoniae ATCC 700603 incubated for 24 hrs by crystal violet staining based analysis; assay type: functional, organism-based; conditions: dose 1-32 µM
Pseudomonas aeruginosa [2] = assay: Synergistic antibacterial activity against Pseudomonas aeruginosa assessed as fractional inhibitory concentration index in presence of rifampin incubated for 18 hrs by checkerboard method; assay type: functional
Pseudomonas aeruginosa [3] = assay: Antibacterial activity against Pseudomonas aeruginosa ATCC 27853 assessed as inhibition of bacterial growth incubated for 18 hrs by microbroth dilution assay; assay type: functional
Staphylococcus aureus [4] = assay: Antibacterial activity against Staphylococcus aureus ATCC 25923 in presence of 4.5 mM KCl; assay type: functional, organism-based
Pseudomonas aeruginosa [5] = assay: Antibacterial activity against Pseudomonas aeruginosa ATCC 27853 in presence of 150 mM NaCl; assay type: functional, organism-based
Escherichia coli [6] = assay: Inhibition of biofilm formation in Escherichia coli ATCC 25922 at >= 2 uM incubated for 24 hrs by crystal violet staining based analysis; assay type: functional, organism-based
Staphylococcus aureus [7] = assay: Antibacterial activity against Staphylococcus aureus ATCC 25923 in presence of 6 uM NH4Cl; assay type: functional, organism-based
[8] = test system: Staphylococcus epidermidis; assay: Antibacterial activity against Staphylococcus epidermidis ATCC 12228 assessed as inhibition of bacterial growth incubated for 18 hrs by microbroth dilution assay; assay type: functional
Pseudomonas aeruginosa [9] = assay: Synergistic antibacterial activity against Pseudomonas aeruginosa assessed as fractional inhibitory concentration index in presence of imipenem incubated for 18 hrs by checkerboard method; assay type: functional
Klebsiella pneumoniae [10] = assay: Synergistic antibacterial activity against Klebsiella pneumoniae assessed as fractional inhibitory concentration index in presence of kanamycin incubated for 18 hrs by checkerboard method; assay type: functional
Klebsiella pneumoniae [11] = assay: Synergistic antibacterial activity against Klebsiella pneumoniae assessed as fractional inhibitory concentration index in presence of rifampin incubated for 18 hrs by checkerboard method; assay type: functional
Staphylococcus aureus [12] = assay: Antibacterial activity against Staphylococcus aureus ATCC 25923 in presence of 150 mM NaCl; assay type: functional, organism-based
Escherichia coli [13] = assay: Synergistic antibacterial activity against Escherichia coli assessed as fractional inhibitory concentration index in presence of rifampin incubated for 18 hrs by checkerboard method; assay type: functional
Staphylococcus aureus [14] = assay: Synergistic antibacterial activity against Staphylococcus aureus assessed as fractional inhibitory concentration index in presence of bacitracin incubated for 18 hrs by checkerboard method; assay type: functional
Cell membrane [15] = assay: Induction of Inner membrane permeabilization in Escherichia coli ML-35 ATCC […] measured every 5 mins for 120 mins by ONPG dye based assay; assay type: subcellular
Cell membrane [16] = assay: Induction of cell membrane permeability in Escherichia coli assessed as bacterial breakage at 2 times MIC by SEM analysis; assay type: subcellular
Staphylococcus aureus [17] = assay: Antibacterial activity against Staphylococcus aureus ATCC 25923 in presence of 8 uM ZnCl2; assay type: functional, organism-based
Klebsiella pneumoniae [18] = assay: In vivo antibacterial activity against Klebsiella pneumoniae ATCC 700603 infected in male Balb/c mouse lung infection model assessed as reduction in pulmonary bacterial load at 10 mg/kg, ip measured after 24 hrs (reference value: 3.05 x 10^9 CFU/g); assay type: functional
Klebsiella pneumoniae [19] = assay: Synergistic antibacterial activity against Klebsiella pneumoniae assessed as fractional inhibitory concentration index in presence of polymyxin B incubated for 18 hrs by checkerboard method; assay type: functional
Staphylococcus aureus [20] = assay: Antibacterial activity against Staphylococcus aureus ATCC 25923 in presence of 2 mM CaCl2; assay type: functional, organism-based
Cell membrane [21] = assay: Induction of Cytoplasmic membrane depolarization in Staphylococcus aureus measured for every 10 mins by DiSC3(5) dye based fluorescence method
Staphylococcus aureus [22] = assay: Antibacterial activity against Staphylococcus aureus ATCC 25923 in presence of 4 uM FeCl3; assay type: functional, organism-based
Klebsiella pneumoniae [23] = assay: In vivo antibacterial activity against Klebsiella pneumoniae ATCC 700603 infected in male Balb/c mouse lung infection model assessed as reduction in crumpling alveoli at 10 mg/kg, ip measured after 24 hrs by H and E staining based analysis; assay type: functional, organism-based
Staphylococcus aureus [24] = assay: Inhibition of biofilm formation in Staphylococcus aureus ATCC 25923 incubated for 24 hrs by crystal violet staining based analysis; assay type: functional, organism-based; conditions: dose 1-32 µM
Pseudomonas aeruginosa [25] = assay: Antibacterial activity against Pseudomonas aeruginosa ATCC 27853 in presence of 1 mM MgCl2; assay type: functional, organism-based
Klebsiella pneumoniae [26] = assay: Antibacterial activity against Klebsiella pneumoniae ATCC 700603 assessed as inhibition of bacterial growth incubated for 18 hrs by microbroth dilution assay; assay type: functional
Pseudomonas aeruginosa [27] = assay: Antibacterial activity against Pseudomonas aeruginosa ATCC 27853 in presence of 4.5 mM KCl; assay type: functional, organism-based
Klebsiella pneumoniae [28] = assay: In vivo antibacterial activity against Klebsiella pneumoniae ATCC 700603 infected in male Balb/c mouse lung infection model assessed as reduction in alveoli expansion at 10 mg/kg, ip measured after 24 hrs by H and E staining based analysis; assay type: functional, organism-based
Klebsiella pneumoniae [29] = assay: In vivo antibacterial activity against Klebsiella pneumoniae ATCC 700603 infected in male Balb/c mouse lung infection model assessed as reduction in pulmonary bacterial load at 5 mg/kg, ip measured after 24 hrs (reference value: 3.05 x 10^9 CFU/g); assay type: functional
[30] = Stability of compound in mouse plasma assessed as degradation of compound by measuring half life incubated for 48 hrs by RP-HPLC analysis; assay type: ADME, cell-free
[31] = Hemolytic activity in Kunming mouse erythrocytes assessed as hemolysis incubated for 1 hr by multimode reader analysis; assay type: toxicity, cell-based; conditions: erythrocyte
Escherichia coli [32] = assay: Synergistic antibacterial activity against Escherichia coli assessed as fractional inhibitory concentration index in presence of polymyxin B incubated for 18 hrs by checkerboard method; assay type: functional
Pseudomonas aeruginosa [33] = assay: Antibacterial activity against Pseudomonas aeruginosa ATCC 27853 in presence of 8 uM ZnCl2; assay type: functional, organism-based
Staphylococcus aureus [34] = assay: Antibacterial activity against Staphylococcus aureus ATCC 25923 assessed as inhibition of bacterial growth incubated for 18 hrs by microbroth dilution assay; assay type: functional
[35] = Acute toxicity in male balb/c mouse assessed as lethal dose at ip administration; assay type: organism-based; conditions: in vivo
Pseudomonas aeruginosa [36] = assay: Inhibition of biofilm formation in Pseudomonas aeruginosa ATCC 27853 incubated for 24 hrs by crystal violet staining based analysis; assay type: functional, organism-based; conditions: dose 1-32 µM
Pseudomonas aeruginosa [37] = assay: Induction of drug resistance in Pseudomonas aeruginosa ATCC 27853 assessed as fold increase in MIC incubated for 24 hrs and measured under 40 passages; assay type: functional
Klebsiella pneumoniae [38] = assay: Inhibition of biofilm formation in Klebsiella pneumoniae ATCC 700603 at 1 uM incubated for 24 hrs by crystal violet staining based analysis; assay type: functional, organism-based
Escherichia coli [39] = assay: Antibacterial activity against Escherichia coli ATCC 25922 assessed as inhibition of bacterial growth incubated for 18 hrs by microbroth dilution assay; assay type: functional
[40] = Retention time of the compound by RP-HPLC analysis; assay type: physicochemical
Cell membrane [41] = assay: Induction of Outer membrane permeabilization in Escherichia coli assessed as increase in fluorescence intensity incubated for 1 min by NPN-dye based fluorescence analysis; assay type: subcellular
Bacillus subtilis = assay: Antibacterial activity against Bacillus subtilis ATCC 23857 assessed as inhibition of bacterial growth incubated for 18 hrs by microbroth dilution assay; assay type: functional
[42] = Hemolytic activity in Kunming mouse erythrocytes assessed as hemolytic rate at 256 uM incubated for 1 hr by multimode reader analysis relative to control; assay type: toxicity, cell-based, Erythrocyte; conditions: read-out: Activity
Cell membrane [43] = assay: Induction of cell membrane permeability in Escherichia coli assessed as cluster formation at 2 times MIC by SEM analysis; assay type: subcellular

N=C(N)NCCC[C@@H](NC(=O)CNC(=O)[C@H]1CCCN1C(=O)[C@@H](CCCNC(=N)N)NC(=O)[C@@H](Cc1ccccc1)NC(=O)[C@@H](CCCNC(=N)N)NC(=O)[C@@H](Cc1ccccc1)NC(=O)[C@@H](CCCNC(=N)N)NC(=O)[C@H](N)Cc1ccccc1)C(=O)N[C@H](Cc1ccccc1)C(=O)N[C@H](CCCNC(=N)N)C(=O)N[C@H](Cc1ccccc1)C(=O)N[C@H](CCCNC(=N)N)C(=O)N[C@H](Cc1ccccc1)C(N)=O
inhibition (Klebsiella pneumoniae [1]): Dose-dependent-effect
fractional inhibitory concentration index (FICI) (Pseudomonas aeruginosa [2]): 0.313
MIC (Pseudomonas aeruginosa [3]): 4 µM (≈ 7.97 µg/mL)
Activity (Staphylococcus aureus [4]): Active
Activity (Pseudomonas aeruginosa [5]): Active
inhibition (Escherichia coli [6]): Active
Activity (Staphylococcus aureus [7]): Active
MIC [8]: 2 µM (≈ 3.98 µg/mL)
fractional inhibitory concentration index (FICI) (Pseudomonas aeruginosa [9]): 0.375
fractional inhibitory concentration index (FICI) (Klebsiella pneumoniae [10]): 0.375
fractional inhibitory concentration index (FICI) (Klebsiella pneumoniae [11]): 0.313
Activity (Staphylococcus aureus [12]): Active
fractional inhibitory concentration index (FICI) (Escherichia coli [13]): 0.25
fractional inhibitory concentration index (FICI) (Staphylococcus aureus [14]): 0.375
Activity (Cell membrane [15]): Dose-dependent-effect
Activity (Cell membrane [16]): Active
Activity (Staphylococcus aureus [17]): Active
Activity (Klebsiella pneumoniae [18]): 2.48 10^7CFU/g
fractional inhibitory concentration index (FICI) (Klebsiella pneumoniae [19]): 0.188
Activity (Staphylococcus aureus [20]): Active
Activity (Cell membrane [21]): Dose-dependent-effect
Activity (Staphylococcus aureus [22]): Active
Activity (Klebsiella pneumoniae [23]): Active
inhibition (Staphylococcus aureus [24]): Dose-dependent-effect
Activity (Pseudomonas aeruginosa [25]): Active
MIC (Klebsiella pneumoniae [26]): 8 µM (≈ 15.9 µg/mL)
Activity (Pseudomonas aeruginosa [27]): Active
Activity (Klebsiella pneumoniae [28]): Active
Activity (Klebsiella pneumoniae [29]): 5.98 10^7CFU/g
half-life [30]: > 2880 min
MHC10 [31]: > 256 µM
fractional inhibitory concentration index (FICI) (Escherichia coli [32]): 0.188
Activity (Pseudomonas aeruginosa [33]): Active
MIC (Staphylococcus aureus [34]): 4 µM (≈ 7.97 µg/mL)
LD50 [35]: 45.3 mg/kg
inhibition (Pseudomonas aeruginosa [36]): Dose-dependent-effect
fold change (FC) (Pseudomonas aeruginosa [37]): <4
inhibition (Klebsiella pneumoniae [38]): Active; Less Effective Than Polymyxin B
MIC (Escherichia coli [39]): 8 µM (≈ 15.9 µg/mL)
Retention_time [40]: 14.438 min
Activity (Cell membrane [41]): Active
MIC (Bacillus subtilis): 2 µM (≈ 3.98 µg/mL)
hemolysis at 1 h, 256 µM [42]: 4.3%
Activity (Cell membrane [43]): Active

N=C(N)NCCC[C@H](NC(=O)CNC(=O)[C@H]1CCCN1C(=O)[C@H](CCCNC(=N)N)NC(=O)[C@H](Cc1ccccc1)NC(=O)[C@H](CCCNC(=N)N)NC(=O)[C@H](Cc1ccccc1)NC(=O)[C@H](CCCNC(=N)N)NC(=O)[C@@H](N)Cc1ccccc1)C(=O)N[C@@H](Cc1ccccc1)C(=O)N[C@@H](CCCNC(=N)N)C(=O)N[C@@H](Cc1ccccc1)C(=O)N[C@@H](CCCNC(=N)N)C(=O)N[C@@H](Cc1ccccc1)C(N)=O
inhibition (Klebsiella pneumoniae [1]): Dose-dependent-effect
fractional inhibitory concentration index (FICI) (Pseudomonas aeruginosa [2]): 0.313
MIC (Pseudomonas aeruginosa [3]): 4 µM (≈ 7.97 µg/mL)
Activity (Staphylococcus aureus [4]): Active
Activity (Pseudomonas aeruginosa [5]): Active
inhibition (Escherichia coli [6]): Active
Activity (Staphylococcus aureus [7]): Active
MIC [8]: 2 µM (≈ 3.98 µg/mL)
fractional inhibitory concentration index (FICI) (Pseudomonas aeruginosa [9]): 0.313
fractional inhibitory concentration index (FICI) (Klebsiella pneumoniae [10]): 0.313
fractional inhibitory concentration index (FICI) (Klebsiella pneumoniae [11]): 0.313
Activity (Staphylococcus aureus [12]): Active
fractional inhibitory concentration index (FICI) (Escherichia coli [13]): 0.313
fractional inhibitory concentration index (FICI) (Staphylococcus aureus [14]): 0.375
Activity (Cell membrane [15]): Dose-dependent-effect
Activity (Cell membrane [16]): Active
Activity (Staphylococcus aureus [17]): Active
Activity (Klebsiella pneumoniae [18]): 4.93 10^7CFU/g
fractional inhibitory concentration index (FICI) (Klebsiella pneumoniae [19]): 0.188
Activity (Staphylococcus aureus [20]): Active
Activity (Cell membrane [21]): Dose-dependent-effect
Activity (Staphylococcus aureus [22]): Active
Activity (Klebsiella pneumoniae [23]): Active
inhibition (Staphylococcus aureus [24]): Dose-dependent-effect
Activity (Pseudomonas aeruginosa [25]): Active
MIC (Klebsiella pneumoniae [26]): 8 µM (≈ 15.9 µg/mL)
Activity (Pseudomonas aeruginosa [27]): Active
Activity (Klebsiella pneumoniae [28]): Active
Activity (Klebsiella pneumoniae [29]): 1.52 10^8CFU/g
half-life [30]: 182 min
MHC10 [31]: 512 µM
fractional inhibitory concentration index (FICI) (Escherichia coli [32]): 0.25
Activity (Pseudomonas aeruginosa [33]): Active
MIC (Staphylococcus aureus [34]): 4 µM (≈ 7.97 µg/mL)
LD50 [35]: 81.3 mg/kg
inhibition (Pseudomonas aeruginosa [36]): Dose-dependent-effect
fold change (FC) (Pseudomonas aeruginosa [37]): <4
inhibition (Klebsiella pneumoniae [38]): Active; Less Effective Than Polymyxin B
MIC (Escherichia coli [39]): 4 µM (≈ 7.97 µg/mL)
Retention_time [40]: 14.433 min
Activity (Cell membrane [41]): Active
MIC (Bacillus subtilis): 4 µM (≈ 7.97 µg/mL)
hemolysis at 1 h, 256 µM [42]: 9.7%
Activity (Cell membrane [43]): Active
